Where two headings read alike, the source gives them in different places.
Tests used:
[1] = tested on: insulin resistant L6 differentiated muscle cells; assay: glucose uptake (radiolabelled 2-deoxy-D-glucose) in insulin resistant L6 differentiated muscle cells (Palmitate exposure); format: cell-based
Protocol: Each condition was tested in triplicate.

[2] = tested on: L6 differentiated muscle cells
Protocol: The effect of zinc and vitamin D on glucose uptake in L6 differentiated muscle cells was measured after short (2hours) and long term (24 hours) incubations.
Ingredient J was tested at 10 µM and 20 µM.
Ingredient K was tested at 1 nM and 10 nM.
Ingredient J was prepared in water and stored at -20°C (mother solution at 2 M) and ingredient K was prepared in DMSO and stored at -20°C (mother solution at 0.01 mM). The day of the experiment, the ingredients were diluted in a serum-free medium (DMEM) containing 5.5 mM D-glucose to achieve the final tested concentrations and 0.1 % of DMSO.
L6 myoblasts were maintained in growth medium or DMEM 25 mM glucose supplemented with 10 % of fetal bovine serum (FBS), 100 U/ml penicillin, and 100 µg/ml streptomycin. For the glucose uptake study, cells were grown on 24 well plates at a density of 1000-1500 cells/well in 0.5 mL of growth medium. Five days after plating, the differentiation induction into myotubes was carried out in DMEM 25 mM glucose containing 2 % FBS, 100 U/ml penicillin, and 100 µg/ml streptomycin at 37°C under a 5 % CO2 atmosphere. The culture medium was changed every other day.
For short term incubation (2 hours), the day prior to the test, the culture medium was replaced by DMEM 25 mM D-glucose containing 0.25 % BSA, 100 U/ml penicillin, and 100 µg/ml streptomycin. The day after and prior to the test, cells were washed and incubated in DMEM containing 5.5 mM D-glucose, 0.34 % BSA in the presence of the ingredients for 2 hours with and without insulin (100 nM).
For long term incubation (24 hours), the day prior to the test, cells were pre-incubated in the presence of the tested ingredients (ingredient J, K, or a combination thereof) for 18 hours in DMEM 25 mM D-glucose containing 0.25 % BSA, 100 U/ml penicillin, and 100 µg/ml streptomycin in the absence of insulin. The day after and prior to the test, cells were washed and incubated in the presence of the tested ingredients for 6 hours more in DMEM containing 5.5 mM D-glucose, 0.34 % BSA without insulin. Insulin (100 nM) was added for the last 2 hours.
In normal and physiopathological conditions, glucose uptake was measured by incubation of the cells with radiolabelled 2-deoxy-D-[1,2 3H] glucose for 15 min. Glucose uptake was arrested by two washing steps in ice-cold PBS 1X. Then cells were solubilized in 0.1 N NaOH for 30 min. Cell associated radioactivity was then counted and protein quantification was determined using the coloric Lowry method.
Each condition was tested in triplicate. Insulin (100 and 1000 nM / 2 hours) and Metformin (1.5 mM / 24 hours) were used as positive controls.
Results are expressed in pmol glucose incorporated / min / mg protein and in % of control or basal condition or insulin 0 nM (100 %).
A statistical analysis allowing multiple comparisons (one way ANOVA followed by a Dunnett's t test; * P < 0.05, **P < 0.01, ***P < 0.001 versus control condition) was carried out.

[3] = insulin resistant cells (Palmitate 6 hours), short term incubation (2 hrs), absence of insulin
[4] = insulin resistant cells (Palmitate 6 hours), short term incubation (2 hrs), presence of insulin (100 nM)
[5] = insulin resistant cells, long term incubation (24 hrs), absence of insulin
[6] = insulin resistant cells, long term incubation (24 hrs), presence of insulin (100 nM, last 2 hours)
[7] = long term incubation (24 hrs), absence of insulin
[8] = long term incubation (24 hrs), presence of insulin (100 nM, last 2 hours)
[9] = short term incubation (2 hrs), absence of insulin, J 10 and 20 µM, K 1 and 10 nM, versus control
[10] = short term incubation (2 hrs), presence of insulin (100 nM), J 10 and 20 µM, K 1 and 10 nM

With `[Cl-].[Cl-].[Zn+2]` [ingredient J, zinc chloride] the glucose uptake [1, 3] was “no increase or a slight but not significant increase”, the glucose uptake [1, 4] was “no increase or a slight but not significant increase” and the glucose uptake [1, 5] was “no increase or a slight but not significant increase”. The glucose uptake [1, 6] was “no increase or a slight but not significant increase”, the glucose uptake [2, 7] was “no increase or a slight but not significant increase” and the glucose uptake [2, 8] was “no increase or a slight but not significant increase”. The glucose uptake [2, 9] was “no increase or a slight but not significant increase” and the glucose uptake [2, 10] was “no increase or a slight but not significant increase”.
For `C=C1/C(=C\C=C2/CCC[C@]3(C)[C@@H]([C@H](C)CCCC(C)(C)O)CC[C@@H]23)C[C@@H](O)C[C@@H]1O` [ingredient K, 1,25-dihydroxyvitamin D3], the glucose uptake [1, 3] was “significant increases”, the glucose uptake [1, 4] was “did not increase insulin-induced glucose uptake” and the glucose uptake [1, 5] was “no increases or a slight but not significant increase”. For the same compound, the glucose uptake [1, 6] was “No increase or a slight but not significant increase”, the glucose uptake [2, 7] was “no increases or a slight but not significant increase” and the glucose uptake [2, 8] was “No increase or a slight but not significant increase”. The glucose uptake [2, 9] was “significant increases” and the glucose uptake [2, 10] was “did not increase insulin-induced glucose uptake”.

— patent EP3177150B1, “A COMBINATION OF VITAMIN D AND ZINC AND ITS USE” (Société des Produits Nestlé S.A., priority 2014, dated 2016)
